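Growth conditions: 96-well plates. Treatment: test compound, 48 hours, 5 concentrations. Analysis: linear interpolation between bracketing concentrations; unreached endpoints set to highest concentration. GI50 = concentration required for 50% inhibition of growth. TGI: total growth inhibition.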
How the values were obtained:
Experiment in all cases: DTP human tumour cell line panel, 48 h
NCI-H460 lung = tested on: NCI-H460 lung
IGROV1 ovarian = tested on: IGROV1 ovarian
SK-MEL-5 melanoma = tested on: SK-MEL-5 melanoma
SW-620 colon = tested on: SW-620 colon
UACC-62 melanoma = tested on: UACC-62 melanoma
RXF 393 renal = tested on: RXF 393 renal
OVCAR-8 ovarian = tested on: OVCAR-8 ovarian
RPMI-8226 leukemia = tested on: RPMI-8226 leukemia
MOLT-4 leukemia = tested on: MOLT-4 leukemia
HS 578T breast = tested on: HS 578T breast

| Structure (SMILES) | TGI (NCI-H460 lung) | TGI (IGROV1 ovarian) | TGI (SK-MEL-5 melanoma) | TGI (SW-620 colon) | TGI (UACC-62 melanoma) | TGI (RXF 393 renal) | TGI (OVCAR-8 ovarian) | TGI (RPMI-8226 leukemia) | TGI (MOLT-4 leukemia) | GI50 (NCI-H460 lung) | GI50 (IGROV1 ovarian) | GI50 (SK-MEL-5 melanoma) | GI50 (SW-620 colon) | GI50 (UACC-62 melanoma) | GI50 (RXF 393 renal) | GI50 (OVCAR-8 ovarian) | GI50 (RPMI-8226 leukemia) | GI50 (MOLT-4 leukemia) | GI50 (HS 578T breast) | TGI (HS 578T breast) |
| --- | --- | --- | --- | --- | --- | --- | --- | --- | --- | --- | --- | --- | --- | --- | --- | --- | --- | --- | --- | --- |
| COC(=O)/C(C)=C(/CCC1(C)OCCO1)O[Si](C)(C)C | > 100 µM | > 100 µM | > 100 µM | > 100 µM | > 100 µM | > 100 µM | > 100 µM | > 100 µM | > 100 µM | – | – | – | – | – | – | – | – | – | – | – |
| CCC[CH2][Sn]1([CH2]CCC)[O]C(=O)c2cccnc2[O]1 | 26 µM | 18.4 µM | 16.8 µM | 3.6 µM | 3.94 µM | 3.82 µM | 7.64 µM | 6.34 µM | 5.96 µM | 13.3 µM | 4.57 µM | 4.57 µM | 1.48 µM | 1.8 µM | 2.02 µM | 2.25 µM | 1.74 µM | 2.09 µM | – | – |
| CCc1cc(C(=O)OC)cn1C(=N)c1ccc(Cl)cc1 | > 100 µM | > 100 µM | > 100 µM | > 100 µM | > 100 µM | – | > 100 µM | > 100 µM | > 100 µM | – | – | – | – | – | – | – | – | – | – | – |
| Cc1cc(=O)n(-c2ccccc2C)c(C)n1 | > 100 µM | > 100 µM | > 100 µM | > 100 µM | > 100 µM | > 100 µM | > 100 µM | – | > 100 µM | – | – | – | – | – | – | – | – | – | – | – |
| CC(C)(C)n1cc(-c2ccnc(NCCCNS(=O)(=O)c3ccc(C(F)(F)F)cc3)c2)c(-c2cccc(O)c2)n1 | 3.57 µM | 3.55 µM | 2.97 µM | 3.71 µM | 3.23 µM | 2.89 µM | 6.44 µM | – | 6.92 µM | 1.86 µM | 1.8 µM | 1.6 µM | 1.89 µM | 1.69 µM | 1.46 µM | 2.46 µM | – | 2.33 µM | 1.98 µM | 4.84 µM |
| COc1cc2c(c(OC)c1OC)-c1ccc(SC)c(=O)cc1C(CO)C2 (centres undefined) | – | > 100 µM | – | > 100 µM | 15.7 µM | – | – | > 100 µM | > 100 µM | < 0.01 µM | < 0.01 µM | < 0.01 µM | < 0.01 µM | < 0.01 µM | < 0.01 µM | < 0.01 µM | – | < 0.01 µM | – | – |
| Cc1ccc2nc(NC(=O)C(=O)C(C#N)c3nc4ccccc4s3)sc2c1 (centres undefined) | > 100 µM | 51.8 µM | 45.7 µM | > 100 µM | > 100 µM | 90.9 µM | > 100 µM | 64.8 µM | 51.4 µM | – | – | – | – | – | – | – | – | – | – | – |
| CCS(CC)(CC)CC1CCCC2=CCC(P(=O)(c3ccccc3)c3ccccc3)CC21 (centres undefined) | 24.8 µM | 28.1 µM | 29.8 µM | 31.5 µM | 13.5 µM | 23.2 µM | 31.4 µM | – | 25.2 µM | – | – | – | – | – | – | – | – | – | – | – |
| C(#Cc1ccccc1C#Cc1cccs1)c1cccs1 | > 100 µM | > 100 µM | > 100 µM | > 100 µM | > 100 µM | > 100 µM | > 100 µM | – | 80.1 µM | 47.4 µM | > 100 µM | 23.6 µM | 42 µM | 43.4 µM | 23.9 µM | > 100 µM | – | 25.8 µM | – | – |
| Cc1ccc(S(=O)(=O)OC2CSS(=O)CC2OS(=O)(=O)c2ccc(C)cc2)cc1 (centres undefined) | 46.4 µM | 32.9 µM | 30.1 µM | 18.9 µM | 29.2 µM | 20.8 µM | 22.5 µM | 27.6 µM | 9.03 µM | – | – | – | – | – | – | – | – | – | – | – |
| OC(c1ccccc1)(c1ccccc1)c1ccncc1 | > 100 µM | > 100 µM | > 100 µM | > 100 µM | > 100 µM | > 100 µM | > 100 µM | > 100 µM | > 100 µM | – | – | – | – | – | – | – | – | – | – | – |
| O=C(O)C(SC(=S)c1ccc(C(=S)SC(C(=O)O)c2ccccc2)cc1)c1ccccc1 (centres undefined) | > 100 µM | > 100 µM | > 100 µM | > 100 µM | > 100 µM | > 100 µM | > 100 µM | > 100 µM | > 100 µM | – | – | – | – | – | – | – | – | – | – | – |
| Clc1ccc(C2SCc3nc4ccccc4n32)c(Cl)c1 (centres undefined) | 34.7 µM | 31.5 µM | 20.4 µM | 22 µM | 32 µM | 29.6 µM | 32.1 µM | 41.1 µM | 34.6 µM | – | – | – | – | – | – | – | – | – | – | – |
| CN(CCCn1c2c(c3ccccc3c1=O)C(=O)c1ccccc1-2)CCCn1c2c(c3ccccc3c1=O)C(=O)c1ccccc1-2 | > 100 µM | – | > 100 µM | > 100 µM | 45.3 µM | – | – | – | 1.06 µM | 0.242 µM | – | 6.57 µM | 0.188 µM | 3.08 µM | – | – | – | – | 2.67 µM | > 100 µM |

— PubChem BioAssay (NCI)
